Columns and labels:
JAK3 = target: T1, JAK3 (Homo sapiens, UniProt P52333); test: JAK3 biochemical assay (ADP-GLO Kinase Assay); settings: for IC50: B*: testing performed in a first testing facility, read-out: JAK3 IC50 (nM) Relative, B*; for JAKs/HPK1 IC50 Ratio, B*: ratio of JAK3 IC50 to HPK1 IC50, first testing facility
T1 construct: purchased Thermo fisher PV3855
Experimental: Biology Example 4 JAK3 Biochemical Assay
This example used the ADP-GLO™ Kinase Assay to measure the effect of potential HPK1 inhibitor compounds on JAK3 kinase activity. An exemplary experimental setting is described below, though minor adjustments can be made in individual assays.
3. Procedures • 1. Prepare JAK3 kinase buffer • Freshly adding DTT and BSA into Buffer (Final Conc.: 40 mM Tris pH7.5; 20 mM MgCl2, 0.1 mg/ml BSA, 50 μM DTT).
• 2. Compounds Preparation • For tested compounds: compounds were diluted to 1 mM, by mixing 5 μL of 10 mM compound stocks to 45 μL DMSO. The compounds solutions were then serially diluted 3-fold for 10 doses. The top compound concentration was 1 mM (100×), DMSO concentration was 100%. • 50 nL of each of 10 doses of diluted compound were added to 384-well assay plate (Corning #4512) by ECHO. • For positive control, 50 nL of 1 mM reference compound were added to 384-well assay plate (Corning #4512) by ECHO. • For negative control: 50 nL of DMSO was transferred into 384-well assay plate as a negative control. • The assay plate was centrifuged at 1,500 rpm for 1 minute. • 3. Compounds were Transferred by ECHO Following the Layout Below: • Reference and test compounds 1-15: serial 3-fold dilution from 10 μM to 0.508 nM (10 doses); negative control is 0.78 ng JAK3, 4 μM ATP & 0.2 μg/μL poly, 1% DMSO; positive control is the top dose of the reference compound, 0.78 ng JAK3, 0.2 μg/μL Poly(E4Y1), 4 μMATP, 1% DMSO. • 4. Add 2.5 μL/well of 2×JAK3 working solution using pipette (Thermo, 30 μL multi-channel), Centrifuge at 1,500 rpm for 1 minute. • 5. Add 2.5 μL/well of 2×ATP-Poly(E4Y1) working mixture using pipette (Thermo, 30 μL multi-channel), Centrifuge at 1,500 rpm for 1 minute. • 6. Incubate the assay plate at 25° C. for 60 min. • 7. Add 5 μL/well ADP-GLO™ Reagent by BRAVO to stop the kinase reaction and deplete the unconsumed ATP after 1 hour. Centrifuge at 1,500 rpm for 1 minute. Incubate at 25° C. for 40 min. • 8. Add 10 uL of Kinase Detection Reagent by BRAVO to convert ADP to ATP. Centrifuge at 1,500 rpm for 1 minute. Incubate at 25° C. for 40 min. • 9. Record luminescence signal on an Envision plate reader (384-USL). • 10. Process data using XL-fit. Inhibition %=[1-(test well−Negative control)/(positive control−Negative control)]*100%. 5. Data Analysis
The percent (%) inhibition at each concentration of compound is calculated based on and relative to the signal in the Negative and Positive control wells contained within each assay plate. The Negative control wells served as 0% inhibition, and the Positive control wells served as 100% inhibition. The concentrations and % inhibition values for tested compounds are plotted and the concentration of compound required for 50% inhibition (IC50) is determined with a Three-parameter logistic dose response equation. The endpoint value (IC50) for the reference peptide/compound is evaluated in each experiment as a quality control measure. If the endpoint value was within 3-fold of the expected value then the experiment was deemed acceptable.

HPK1 = HPK1 (Homo sapiens, UniProt Q92918); test: HPK1 biochemical assay (ADP-GLO Kinase Assay); settings: B*: testing performed in a first testing facility; read-out: HPK1 IC50 (nM) Relative, B*
Chain of HPK1 (Q92918 whole entry): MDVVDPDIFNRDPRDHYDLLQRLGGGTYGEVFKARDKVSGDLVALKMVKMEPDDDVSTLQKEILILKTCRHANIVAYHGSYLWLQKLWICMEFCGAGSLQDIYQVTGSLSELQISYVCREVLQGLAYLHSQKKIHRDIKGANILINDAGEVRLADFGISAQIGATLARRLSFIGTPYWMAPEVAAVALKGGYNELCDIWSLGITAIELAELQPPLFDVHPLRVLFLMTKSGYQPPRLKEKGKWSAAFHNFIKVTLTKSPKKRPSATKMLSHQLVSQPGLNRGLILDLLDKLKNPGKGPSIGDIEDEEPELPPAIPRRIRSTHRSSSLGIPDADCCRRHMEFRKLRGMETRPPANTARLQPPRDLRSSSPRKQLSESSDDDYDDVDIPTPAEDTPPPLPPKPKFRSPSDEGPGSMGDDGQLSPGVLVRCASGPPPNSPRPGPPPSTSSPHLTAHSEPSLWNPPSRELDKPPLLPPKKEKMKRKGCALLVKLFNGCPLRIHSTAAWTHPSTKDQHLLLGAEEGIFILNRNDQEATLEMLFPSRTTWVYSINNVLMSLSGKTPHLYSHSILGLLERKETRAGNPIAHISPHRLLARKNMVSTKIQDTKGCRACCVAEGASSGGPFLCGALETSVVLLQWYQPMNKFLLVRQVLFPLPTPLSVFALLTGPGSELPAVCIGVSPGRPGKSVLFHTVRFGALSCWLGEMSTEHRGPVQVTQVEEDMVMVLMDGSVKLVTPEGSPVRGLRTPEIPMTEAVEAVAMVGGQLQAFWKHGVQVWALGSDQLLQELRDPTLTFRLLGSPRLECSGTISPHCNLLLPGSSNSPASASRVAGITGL
From the text: IC50 values of any compounds can be determined accordingly over a range of inhibitor concentrations. In addition, the inhibitory effect of the compounds can also be assess using a biological assay, to determine the effect of the compounds on cytokine secretion by T cells following TCR and CD28 stimulation.
Biology Example 1 HPK1 Biochemical Assay
This example used the ADP-GLO™ Kinase Assay to measure the effect of potential HPK1 inhibitor compounds on HPK1 kinase activity.
The ADP-GLO™ Kinase Assay (Promega Corp., Madison, WI) measures ADP formed from a kinase reaction. According to the manufacture, the ADP formed in a kinase assay is first converted into ATP, which is then used to generate light in a luciferase reaction. The luminescence generated correlates with kinase activity. An exemplary experimental setting is described below, though minor adjustments can be made in individual assays.
Serial 3-fold dilution of compounds from 10 μM (top concentration) to 0.508 nM (lowest concentration). Positive control is 10 μM Reference+enzyme+substrate. Negative control is 1% DMSO+enzyme+substrate.
• 1. Buffer Preparation • 40 mM Tris pH7.5; 20 mM MgCl2, 0.1 mg/ml BSA, 50 μM DTT Buffer Stock
Add 20 mL 1M Tris and 10 mL 1M MgCl2 to 470 mL ddH2O to get buffer stock, and stock at RT. • 2. Preparing Fresh 1* Assay Buffer
• 3. Compounds Preparation • 1) The compounds were diluted to 1 mM, by mixing 10 μL of 10 mM respective compound stocks with 90 μL of DMSO. • 2) The compounds were then diluted 3-fold for 10 doses (5 μL to 10 μL dilution) by BRAVO. The top compound conc. was 1 mM (100×), DMSO Conc. was 100%. • 3) Transfer 100 nL of each diluted compound sample to 384-well plate (Corning-4512) by ECHO. • 4) Centrifuge the plate at 1,500 rpm for 1 minute. • 4. Preparation of 2×ATP-MBP Mixture: • 20 μM ATP, 0.2 μg/μL MBP in Kinase Buffer (final concentration: 10 μM ATP, 0.1 MBP)
• 5. Preparation of 2×HPK1 working solution with assay buffer. • HPK1 final concentration was 0.6 ng/μL. […] Incubate at 25° C. for 40 min. • 11. Record luminescence signal on an Envision plate reader (384-CTG). 5. Data Analysis
The percent (%) inhibition at each concentration of compound is calculated based on and relative to the signal in the High and Low control wells contained within each assay plate. […] The concentrations and % inhibition values for tested compounds were plotted and the concentration of compound required for 50% inhibition (IC50) was determined with a Three-parameter logistic dose response equation. The endpoint value (IC50) for the reference peptide/compound was evaluated in each experiment as a quality control measure. If the endpoint value was within 3-fold of the expected value, then the experiment was deemed acceptable.

T1 sequence (P52333 781-1124 limits assumed): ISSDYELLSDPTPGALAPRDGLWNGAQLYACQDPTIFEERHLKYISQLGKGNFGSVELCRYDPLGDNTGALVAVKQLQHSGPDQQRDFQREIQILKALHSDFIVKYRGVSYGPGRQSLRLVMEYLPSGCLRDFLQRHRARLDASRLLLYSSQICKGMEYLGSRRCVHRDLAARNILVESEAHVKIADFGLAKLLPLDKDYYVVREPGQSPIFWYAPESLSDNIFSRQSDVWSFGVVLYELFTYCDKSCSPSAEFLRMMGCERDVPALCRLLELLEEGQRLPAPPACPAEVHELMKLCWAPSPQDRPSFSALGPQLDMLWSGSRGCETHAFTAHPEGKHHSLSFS

Row | Compound | IC50 (JAK3) [nM] | JAKs/HPK1 IC50 Ratio, B* (JAK3) | IC50 (HPK1) [nM]
1 | CCc1c[nH]c2ncc(-c3cc(N)cc(P(C)(C)=O)c3)cc12 [Example 57, (3-Amino-5-(3-ethyl-1H-pyrrolo[2,3-b]pyridin-5-yl)phenyl)dimethylphosphine oxide] | 500 to 1000 | 22 | ≤ 100
2 | CCc1c[nH]c2ncc(-c3ccc(F)c(P(C)(C)=O)c3N)cc12 [Example 60, (2-Amino-3-(3-ethyl-1H-pyrrolo[2,3-b]pyridin-5-yl)-6-fluorophenyl)dimethylphosphine oxide] | > 1000 | 25 | ≤ 100
3 | CCc1c[nH]c2ncc(-c3ccc(C)c(P(C)(C)=O)c3F)cc12 [Example 62, (3-(3-Ethyl-1H-pyrrolo[2,3-b]pyridin-5-yl)-2-fluoro-6-methylphenyl)dimethylphosphine oxide] | > 1000 | 54 | ≤ 100
4 | CCc1c[nH]c2ncc(-c3ccc(C)c(P(C)(C)=O)n3)cc12 [Example 64, (6-(3-Ethyl-1H-pyrrolo[2,3-b]pyridin-5-yl)-3-methylpyridin-2-yl)dimethylphosphine oxide] | > 1000 | 44 | ≤ 100
5 | CCc1c[nH]c2ncc(-c3ccc(N4CCCC4=O)c(P(C)(C)=O)c3)cc12 [Example 66, 1-(2-(Dimethylphosphoryl)-4-(3-ethyl-1H-pyrrolo[2,3-b]pyridin-5-yl)phenyl)pyrrolidin-2-one] | > 1000 | 3 | 100 to 500

Next, values leading:

Row | IC50 (JAK3) [nM] | JAKs/HPK1 IC50 Ratio, B* (JAK3) | IC50 (HPK1) [nM] | Compound
6 | > 1000 | 51 | ≤ 100 | CCc1c[nH]c2ncc(-c3ccc(F)c(P(C)(C)=O)c3)cc12 [Example 51, (5-(3-Ethyl-1H-pyrrolo[2,3-b]pyridin-5-yl)-2-fluorophenyl)dimethylphosphine oxide]
7 | 100 to 500 | 20 | ≤ 100 | CCc1c[nH]c2ncc(-c3ccc(O)c(P(C)(C)=O)c3)cc12 [Example 55, (5-(3-Ethyl-1H-pyrrolo[2,3-b]pyridin-5-yl)-2-hydroxyphenyl)dimethylphosphine oxide]
8 | 100 to 500 | 4 | ≤ 100 | CCc1c[nH]c2ncc(-c3ccc(NC(C)=O)c(P(C)(C)=O)c3)cc12 [Example 58, N-(2-(dimethylphosphoryl)-4-(3-ethyl-1H-pyrrolo[2,3-b]pyridin-5-yl)phenyl)acetamide]
9 | > 1000 | 15 | 100 to 500 | CCc1c[nH]c2ncc(-c3ccc(C(F)F)c(P(C)(C)=O)c3)cc12 [Example 61, (2-(Difluoromethyl)-5-(3-ethyl-1H-pyrrolo[2,3-b]pyridin-5-yl)phenyl)dimethylphosphine oxide]
10 | > 1000 | 19 | 100 to 500 | CCc1c[nH]c2ncc(-c3ccc(-c4ncco4)c(P(C)(C)=O)c3)cc12 [Example 63, (5-(3-Ethyl-1H-pyrrolo[2,3-b]pyridin-5-yl)-2-(oxazol-2-yl)phenyl)dimethylphosphine oxide]
11 | > 1000 | >10 | 500 to 1000 | CCc1c[nH]c2ncc(-c3ccc(CN(C)C)c(P(C)(C)=O)c3)cc12 [Example 65, (2-((Dimethylamino)methyl)-5-(3-ethyl-1H-pyrrolo[2,3-b]pyridin-5-yl)phenyl)dimethylphosphine oxide]
12 | > 1000 | 10 | 100 to 500 | CCc1c[nH]c2ncc(-c3ccc(C(N)=O)c(P(C)(C)=O)c3)cc12 [Example 67, 2-(Dimethylphosphoryl)-4-(3-ethyl-1H-pyrrolo[2,3-b]pyridin-5-yl)benzamide]
13 | > 1000 | 2 | 500 to 1000 | CCc1c[nH]c2ncc(-c3cc(NC(C)=O)cc(P(C)(C)=O)c3)cc12 [Example 68, N-(3-(dimethylphosphoryl)-5-(3-ethyl-1H-pyrrolo[2,3-b]pyridin-5-yl)phenyl)acetamide]
